# Test results: patent US20180314077A1, “DRUG SUSTAINED-RELEASING MEDICAL CONTACT LENS” (NOF CORPORATION, priority 2015, published 2018)
# Where a name gives a salt, the structure may show the parent alone. Read-outs that look alike come from different tables or passages of the source.
# Text: The solubility of the drug (Q) to be used in the drug sustained-releasing medical contact lens of the present invention in water may be calculated by using the following equation.
Solubility in water [%],Compound,"Solubility in water (water at 25° C., 0.01 g of drug / mass of water needed for dissolving x100) [%]"
0.55,O=C(O)C(=O)Nc1cccc(-c2nnn[nH]2)c1 [acitazanolast hydrate],
0.16,Nc1nc2c(ncn2COCCO)c(=O)[nH]1 [acyclovir],
,CC(C)c1ccc2oc3nc(N)c(C(=O)O)cc3c(=O)c2c1 [amlexanox],0.01
0.55,CCNC(=O)CCC/C=C\C[C@@H]1[C@@H](/C=C/[C@@H](O)CCc2ccccc2)[C@H](O)C[C@@H]1O [bimatoprost],
0.055,CCN[C@H]1CN(CCCOC)S(=O)(=O)c2sc(S(N)(=O)=O)cc21 [brinzolamide],
0.55,CCCC(=O)N1CCCN(c2nc(N)c3cc(OC)c(OC)cc3n2)CC1 [bunazosin hydrochloride],
0.055,CO/N=C(\C(=O)N[C@@H]1C(=O)N2C(C(=O)O)=C(CSc3nnnn3C)CS[C@H]12)c1csc(N)n1 [cefmenoxime],
0.01,C[C@@H]1C[C@H]2[C@@H]3CCC4=CC(=O)C=C[C@]4(C)[C@@]3(F)[C@@H](O)C[C@]2(C)[C@@]1(O)C(=O)CO [dexamethasone],
0.24,O=C(O)Cc1ccccc1Nc1c(Cl)cccc1Cl [diclofenac sodium],
0.003,CC(=O)[C@@]1(O)CC[C@H]2[C@@H]3C[C@H](C)C4=CC(=O)C=C[C@]4(C)[C@@]3(F)[C@@H](O)C[C@@]21C [fluorometholone],
0.55,COc1c(N2CCNC(C)C2)c(F)cc2c(=O)c(C(=O)O)cn(C3CC3)c12 (centres unmarked) [gatifloxacin],
0.0014,CC(=O)OCC(=O)[C@@]1(O)CC[C@H]2[C@@H]3CCC4=CC(=O)CC[C@]4(C)[C@H]3[C@@H](O)C[C@@]21C [hydrocortisone acetate],
0.00009,COc1ccc2c(c1)c(CC(=O)O)c(C)n2C(=O)c1ccc(Cl)cc1 [indomethacin],
0.01,CCCCCCCC(=O)CC[C@@H]1[C@@H](C/C=C\CCCC(=O)OC(C)C)[C@@H](O)C[C@H]1O [isopropyl unoprostone],
0.55,CN1CCC(=C2c3ccccc3CC(=O)c3sccc32)CC1 [ketotifen fumarate],
0.01,CC(C)OC(=O)CCC/C=C\C[C@@H]1[C@@H](CC[C@@H](O)CCc2ccccc2)[C@H](O)C[C@@H]1O [latanoprost],
0.01,C[C@@H]1CN([C@H]2CC[C@](C#N)(c3ccc(F)cc3)CC2)CC[C@]1(C(=O)O)c1ccccc1 [levocabastine hydrochloride],
0.55,CCn1cc(C(=O)O)c(=O)c2cc(F)c(N3CCNC(C)C3)c(F)c21 (centres unmarked) [lomefloxacin hydrochloride],
0.01,NC(=O)Cc1cccc(C(=O)c2ccccc2)c1N [nepafenac],
0.01,CCn1cc(C(=O)O)c(=O)c2cc(F)c(N3CCNCC3)cc21 [norfloxacin],
2.15,CN(C)CC/C=C1/c2ccccc2COc2ccc(CC(=O)O)cc21 [olopatadine hydrochloride],
0.01,O=C(O)c1cc(O)c2c3nc4ccccc4oc-3cc(=O)c2n1 [pirenoxine],
0.01,CC(C(=O)O)c1ccc2c(c1)Cc1cccnc1O2 (centres unmarked) [pranoprofen],
0.01,O=C(NC(Cc1cc(=O)[nH]c2ccccc12)C(=O)O)c1ccc(Cl)cc1 (centres unmarked) [rebamipide],
0.01,CC(C)OC(=O)CCC/C=C\C[C@@H]1[C@@H](/C=C/C(F)(F)COc2ccccc2)[C@H](O)C[C@@H]1O [tafluprost],
0.01,NC1CCN(c2nc3c(cc2F)c(=O)c(C(=O)O)cn3-c2ccc(F)cc2F)C1 (centres unmarked) [tosufloxacin tosilate hydrate],
0.01,COc1ccc(/C=C/C(=O)Nc2ccccc2C(=O)O)cc1OC [tranilast],
0.01,CC(C)OC(=O)CCC/C=C\C[C@@H]1[C@@H](/C=C/[C@@H](O)COc2cccc(C(F)(F)F)c2)[C@H](O)C[C@@H]1O [travoprost],
2.15,cyanocobalamin,
2.15,sodium hyaluronate,

Compound,Solubility in water [%],"Solubility in water (water at 25° C., 0.01 g of drug / mass of water needed for dissolving x100) [%]"
C[C@@H]1C[C@H]2[C@@H]3CCC4=CC(=O)C=C[C@]4(C)[C@@]3(F)[C@@H](O)C[C@]2(C)[C@@]1(O)C(=O)COC(=O)c1cccc(S(=O)(=O)[O-])c1.[Na+] [dexamethasone sodium sulfobenzoate],0.55,
sodium azulene sulfonate hydrate,2.15,
